Laboratory results from the NIST ThermoML archive (doi:10.1021/je5002494).
Numbers after ± are expanded uncertainties.

conditions: Liquid

| Compound | Critical pressure [kPa] | Critical temperature [K] |
| --- | --- | --- |
| O=C=O [carbon dioxide] | 7379.8 ± 300 | 304.3 ± 3.7 |
| CCOC(C)=O [ethyl acetate] | 3828.9 ± 300 | 523.29 ± 3.7 |
| CCCC(=O)OCC [ethyl butanoate] | 2891.5 ± 300 | 569.98 ± 3.7 |
| CCCCCCC(=O)OCC [ethyl heptanoate] | 2356.9 ± 300 | 635.12 ± 3.7 |
| CCCCCC(=O)OCC [ethyl hexanoate] | 2531.3 ± 300 | 615.22 ± 3.7 |
| CCCCCCCC(=O)OCC [ethyl octanoate] | 2159.2 ± 300 | 655.74 ± 3.7 |
| CCCCC(=O)OCC [ethyl pentanoate] | 2730.4 ± 300 | 594.02 ± 3.7 |
| CCOC(=O)CC [ethyl propanoate] | 3385.6 ± 300 | 546.28 ± 3.7 |
| C/C=C/C(=O)OCC [ethyl trans-2-butenoate] | 3670.8 ± 300 | 593.84 ± 3.7 |
